Blank lines part the entries; values can stand above or below the molecule they belong to.
Experiment: photoluminescence quantum yield (fraction); solvent given as SMILES

photoluminescence quantum yield (in ClCCl): 0.12
SMILES: CC(C)(C)c1ccc2c(c1)c1cc(C(C)(C)C)ccc1n2-c1ccc(C#Cc2ccc3c4ccc(C#Cc5ccc(C=C(C#N)C#N)cc5)cc4n(-c4ccc(C(F)(F)F)cc4)c3c2)cc1

photoluminescence quantum yield (in ClC(Cl)Cl): 0.06
SMILES: c1cc2cc(c1)c1cccc(c1)c1cccc(c1)c1cccc(c1)c1cccc(c1)c1cccc2c1

SMILES: CN(C)c1ccc(-c2nc(-c3ccc(-n4c5ccccc5c5ccccc54)cc3)cc(-c3ccc(-n4c5ccccc5c5ccccc54)cc3)n2)cc1
photoluminescence quantum yield (in C1CCOC1): 0.035
photoluminescence quantum yield (in CN(C)C=O): 0.011
photoluminescence quantum yield (in Cc1ccccc1): 0.07
photoluminescence quantum yield (in ClC(Cl)Cl): 0.07

photoluminescence quantum yield (in CCO): 0.008
photoluminescence quantum yield (in O): 0.14
SMILES: COc1cccc(OC)c1-c1c2ccc(=[N+]3CCNCC3)cc-2oc2cc(N3CCNCC3)ccc12

photoluminescence quantum yield (in C1COCCO1): 0.25
photoluminescence quantum yield (in CC#N): 0.03
photoluminescence quantum yield (in CCCCOCCCC): 0.25
photoluminescence quantum yield (in CCOC(C)=O): 0.12
SMILES: COc1nc(Cl)nc(Nc2ccc3cc4ccccc4cc3c2)n1

photoluminescence quantum yield (in ClCCl): 0.16
SMILES: CCCCCCN1C(=O)c2cccc3c(-c4ccc(-c5cc(-c6ccccc6)nn5-c5ccccc5)s4)ccc(c23)C1=O

photoluminescence quantum yield (in ClCCl): 0.5
SMILES: CCCCC1C(=O)c2cc(Oc3ccc(C(C)(C)C)cc3)c3c4c(Oc5ccc(C(C)(C)C)cc5)cc5c6c(cc(Oc7ccc(C(C)(C)C)cc7)c(c7c(Oc8ccc(C(C)(C)C)cc8)cc(c2c37)C1=O)c64)C1=C(C5=O)c2ccc3ccccc3[n+]2[B-](F)(F)O1 (stereo not drawn)

photoluminescence quantum yield (in ClCCl): 0.739
SMILES: CC1=C(c2ccccc2)C(C)=[N+]2C1=C(c1c(-c3ccccn3)nc3ccccn13)c1c(C)cc(C)n1[B-]2(F)F

SMILES: CC1(C)c2ccccc2N(c2ccc(-c3ncccn3)cc2)c2ccccc21
photoluminescence quantum yield (in O=P(c1ccccc1)(c1ccccc1)c1ccc2oc3ccc(P(=O)(c4ccccc4)c4ccccc4)cc3c2c1): 0.83

photoluminescence quantum yield (in ClCCl): 0.59
SMILES: CCN(CC)c1ccc2cc(-c3ccc(-c4ccc(-c5cc6ccccc6oc5=O)cc4)cc3)c(=O)oc2c1

photoluminescence quantum yield (in C1CCCCC1): 0.16
SMILES: c1ccc(-c2cc3cccc[n+]3[b-]3ccc(-c4cc[b-]5c(c4)c(-c4ccccc4)cc4cccc[n+]54)cc32)cc1

photoluminescence quantum yield (in CCO): 0.02
SMILES: Cc1cc(=O)oc2cc3cc(-c4cn(Cc5ccccc5)nn4)ccc3cc12

photoluminescence quantum yield (in ClC(Cl)Cl): 0.84
SMILES: CCCCCCN1C(=O)C(c2ccc(-c3ccc(-n4c5ccccc5c5ccccc54)cc3)cc2)=C(c2ccc(-c3ccc(-n4c5ccccc5c5ccccc54)cc3)cc2)C1=O
photoluminescence quantum yield (in c1ccc2c(c1)c1ccccc1n2-c1ccc(-c2ccc(-n3c4ccccc4c4ccccc43)cc2)cc1): 0.57

SMILES: F[B-]1(F)n2c(c3cccc4cccc2c43)=Nc2ccc3ccccc3[n+]21
photoluminescence quantum yield (in C1CCOC1): 0.98
photoluminescence quantum yield (in CC#N): 0.99
photoluminescence quantum yield (in CCCCCC): 0.63
photoluminescence quantum yield (in Cc1ccccc1): 0.99
photoluminescence quantum yield (in ClCCl): 0.99

SMILES: c1ccc([B-]2(c3ccccc3)Oc3ccc4ccccc4c3-c3c4ccccc4cc[n+]32)cc1
photoluminescence quantum yield (in Cc1ccccc1): 0.32

SMILES: Cc1cc(C)n2c1C=C1c3ccccc3C(c3c[nH]c4ccccc34)=[N+]1[B-]2(F)F
photoluminescence quantum yield (in C1CCOC1): 0.97
photoluminescence quantum yield (in CC#N): 0.96
photoluminescence quantum yield (in CCCCCC): 0.99
photoluminescence quantum yield (in CO): 0.96
photoluminescence quantum yield (in Cc1ccccc1): 0.96
photoluminescence quantum yield (in ClCCl): 0.98

SMILES: Oc1ccccc1-c1nc2c3cccnc3c3ncccc3c2n1-c1ccccc1
photoluminescence quantum yield (in Cc1ccccc1): 0.001

photoluminescence quantum yield (in C1CCCCC1): 0.9
SMILES: CCCC1(CCC)c2cc(-c3ccc(C(C)(C)C)cc3)ccc2-c2ccc(-c3ccc4c(c3)C(CCC)(CCC)c3cc(-c5ccc6c(c5)C(CCC)(CCC)c5cc(-c7ccc(C(C)(C)C)cc7)ccc5-6)ccc3-4)cc21

photoluminescence quantum yield (in CN(C)C=O): 0.12
SMILES: COC(=O)C(N)Cc1ccc(O[Si]2(Oc3ccc(CC(N)C(=O)OC)cc3)n3c4c5ccccc5c3/N=C3N=C(/N=c5/c6ccccc6/c(n52)=N/C2=NC(=N\4)/c4ccccc42)c2ccccc2\3)cc1 (stereo not drawn)

photoluminescence quantum yield (in C1COCCO1): 0.85
SMILES: CCC(C)(C)c1ccc(-c2ccc(-c3ccc(C(C)(C)CC)cc3)cc2)cc1

photoluminescence quantum yield (in ClC(Cl)Cl): 0.71
SMILES: N#Cc1nc(N(Cc2ccc(Br)cc2)Cc2ccc(Br)cc2)c(C#N)nc1N(Cc1ccc(Br)cc1)Cc1ccc(Br)cc1

photoluminescence quantum yield (in ClCCl): 0.12
SMILES: CC(=O)c1ccc(-c2cc3c(ccc4sccc43)s2)cc1

SMILES: N#CC(C#N)=Cc1ccc2nc(C#Cc3ccc(N(c4ccccc4)c4ccccc4)cc3)sc2c1
photoluminescence quantum yield (in Cc1ccccc1): 0.47

photoluminescence quantum yield (in C1CCCCC1): 0.008
SMILES: Clc1cc(Cl)c([C](c2c(Cl)cc(Cl)cc2Cl)c2c(Cl)cc(Cl)cc2Cl)c(Cl)c1

SMILES: C1=C(c2ccccc2)C2=Nc3c(-c4ccccc4)cc4n3[B-]3(Oc5ccccc5C1=[N+]23)Oc1ccccc1-4 (stereo not drawn)
photoluminescence quantum yield (in Cc1ccccc1): 0.51

photoluminescence quantum yield (in ClCCl): 0.0085
SMILES: CC(C)(C)c1cc(-n2c(-c3ccc(C(=C(c4ccccc4)c4ccccc4)c4ccccc4)cc3)cc3c2cc(-c2ccc(C(=C(c4ccccc4)c4ccccc4)c4ccccc4)cc2)n3-c2cc(C(C)(C)C)cc(C(C)(C)C)c2)cc(C(C)(C)C)c1

photoluminescence quantum yield (in ClC(Cl)Cl): 0.63
SMILES: CC(C)C1=c2c(c3[nH]cc(C(C)C)c3c3ccccc23)=[N+]2C1=Cc1c(C(C)C)c3c4ccccc4c4c(C(C)C)c[nH]c4c3n1[B-]2(F)F

photoluminescence quantum yield (in C1CCCCC1): 0.001
photoluminescence quantum yield (in CO): 0.001
SMILES: Clc1ccc(/C=C(\c2ccccc2)c2nc3ccccc3s2)cc1

photoluminescence quantum yield (in CO): 0.07
SMILES: c1ccc(N(c2ccccc2)c2ccc(-c3ncc(-c4ccncc4)s3)cc2)cc1

photoluminescence quantum yield (in CS(C)=O): 0.08
SMILES: N#CC1=C(N)n2c(=O)c3ccccc3c(=O)n2C1c1cccs1 (stereo not drawn)

SMILES: CC(C)[Si](C#Cc1c2ccc(C(C)(C)C)cc2c(C#Cc2c3ccc(C(C)(C)C)cc3c(C#Cc3c4ccc(C(C)(C)C)cc4c(C#C[Si](C(C)C)(C(C)C)C(C)C)c4ccc(C(C)(C)C)cc34)c3ccc(C(C)(C)C)cc23)c2ccc(C(C)(C)C)cc12)(C(C)C)C(C)C
photoluminescence quantum yield (in Cc1ccccc1): 0.022

photoluminescence quantum yield (in ClCCl): 0.23
SMILES: C(=C\c1ncnc2ccccc12)/c1ccc(-c2ccc(N(c3ccccc3)c3ccccc3)cc2)cc1

photoluminescence quantum yield (in CC#N): 0.004
SMILES: N#C/C(=C\c1ccc(Cl)cc1)c1nc(-c2ccccc2)c(-c2ccccc2)s1

photoluminescence quantum yield (in O): 0.25
SMILES: CC[n+]1nc2cc3c4c(c2c2ccccc21)CCCN4CCC3

photoluminescence quantum yield (in ClCCl): 0.77
SMILES: Cc1cc(-c2nc3c4ccccc4c4ccccc4c3n2-c2ccc(C(C)(C)C)cc2)ccc1-c1ccc(-c2c(-c3ccccc3)nc3ccccn23)cc1

SMILES: c1ccc(-n2c(-c3cccc4ccccc34)nc3c4ccccc4c4ccccc4c32)cc1
photoluminescence quantum yield (in Cc1ccccc1): 0.79

SMILES: F[B-]1(F)Oc2ccccc2-c2nc(-c3ccccc3)c3ccccc3[n+]21
photoluminescence quantum yield (in Cc1ccccc1): 0.013

photoluminescence quantum yield (in CCO): 0.34
SMILES: CCOC(=O)c1cc(C(=O)OCC)c2cc(NC(=O)C(F)(F)F)ccc2n1

SMILES: CCCCCCCCn1c2cc(/C=C/c3ccc(N(c4ccccc4)c4ccccc4)cc3)ccc2c2cc3c(cc21)c1ccc(/C=C/c2ccc(N(c4ccccc4)c4ccccc4)cc2)cc1n3CCCCCCCC
photoluminescence quantum yield (in Cc1ccccc1): 0.62

photoluminescence quantum yield (in ClCCl): 0.86
SMILES: C(=C\c1ccc(N(c2ccccc2)c2ccccc2)cc1)/c1ccc(-c2ccc(/C=C/c3ccc(N(c4ccccc4)c4ccccc4)cc3)cc2)cc1

photoluminescence quantum yield (in ClCCl): 0.78
SMILES: Cc1ccc(N(c2ccc(C)cc2)c2cc(N(c3ccc(C)cc3)c3ccc(C)cc3)c3ccc4cc(C(C)(C)C)cc5ccc2c3c54)cc1

photoluminescence quantum yield (in C1CCOC1): 0.11
SMILES: F[Si](c1ccccc1)(c1ccccc1)c1cc2ccccc2c2ccccc12

photoluminescence quantum yield (in C1CCOC1): 0.216
SMILES: O=c1oc2cccc3c4cccc5ccc6c7cc(F)ccc7c1c(c23)c6c54

photoluminescence quantum yield (in ClC(Cl)Cl): 0.19
SMILES: N#CC(C#N)=Cc1ccc(-c2ccc(N(c3ccccc3)c3ccccc3)cc2)o1

photoluminescence quantum yield (in CC#N): 0.98
SMILES: C=Cc1cc2ccc(N(CC)CC)cc2oc1=O

Source: the Deep4Chem optical property database
